For assay [1], the target named is T1, mouse Siglec-2-Fc-Avi (CD22) (Mus musculus, UniProt P35329).
T1 construct: made in house
T1 sequence (P35329 22-708 limits assumed): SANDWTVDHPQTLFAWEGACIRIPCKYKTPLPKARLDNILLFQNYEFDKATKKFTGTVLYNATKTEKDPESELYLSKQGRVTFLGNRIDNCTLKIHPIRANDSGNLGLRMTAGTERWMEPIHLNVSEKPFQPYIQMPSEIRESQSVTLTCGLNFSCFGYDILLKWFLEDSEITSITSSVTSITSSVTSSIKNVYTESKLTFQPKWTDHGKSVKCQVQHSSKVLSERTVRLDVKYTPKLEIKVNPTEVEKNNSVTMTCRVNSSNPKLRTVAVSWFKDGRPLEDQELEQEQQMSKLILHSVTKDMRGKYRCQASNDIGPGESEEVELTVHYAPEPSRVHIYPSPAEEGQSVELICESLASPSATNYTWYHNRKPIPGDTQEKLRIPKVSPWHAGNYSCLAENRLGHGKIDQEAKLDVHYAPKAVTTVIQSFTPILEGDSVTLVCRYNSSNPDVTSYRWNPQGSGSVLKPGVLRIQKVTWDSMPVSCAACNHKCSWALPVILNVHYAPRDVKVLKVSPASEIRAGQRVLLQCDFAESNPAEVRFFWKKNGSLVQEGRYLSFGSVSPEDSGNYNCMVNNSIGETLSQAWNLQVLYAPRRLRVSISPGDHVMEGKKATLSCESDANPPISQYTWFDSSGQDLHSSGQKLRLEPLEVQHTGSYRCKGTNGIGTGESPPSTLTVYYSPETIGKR
Nature of the assay: SPR binding affinity to mouse CD22. The conditions noted are these: steady-state analysis. The essentials:
(§1)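 Using a Biacore 8K, compounds were tested against biotinylated CD22 captured after sialidase treatment. The running buffer held 1% DMSO, corrected with a 0.5–2% DMSO series. Affinity was derived by steady-state analysis.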
In general terms: Surface plasmon resonance follows binding to a sensor surface in real time, without labels.

For another assay, the target named is cynomolgus Siglec-2/CD22 (Macaca fascicularis, UniProt A0A2K5WCZ6). Briefly: biochemical. Type of assay: binding. The conditions noted are these: SPR, steady-state analysis; read-out: Affinity cyno CD22. The essentials: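 SPR with desialylated (SialoExo, 4 h, 37° C.) cynomolgus CD22 amine-coupled to a CM5 chip. Running buffer 10 mM HEPES, 150 mM NaCl, 0.05% Tween-20, pH 7.5, 1% DMSO, with solvent correction; 120 s dissociation. Affinities from steady-state analysis.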
Sequence of cynomolgus Siglec-2/CD22 (A0A2K5WCZ6 entry or part of it): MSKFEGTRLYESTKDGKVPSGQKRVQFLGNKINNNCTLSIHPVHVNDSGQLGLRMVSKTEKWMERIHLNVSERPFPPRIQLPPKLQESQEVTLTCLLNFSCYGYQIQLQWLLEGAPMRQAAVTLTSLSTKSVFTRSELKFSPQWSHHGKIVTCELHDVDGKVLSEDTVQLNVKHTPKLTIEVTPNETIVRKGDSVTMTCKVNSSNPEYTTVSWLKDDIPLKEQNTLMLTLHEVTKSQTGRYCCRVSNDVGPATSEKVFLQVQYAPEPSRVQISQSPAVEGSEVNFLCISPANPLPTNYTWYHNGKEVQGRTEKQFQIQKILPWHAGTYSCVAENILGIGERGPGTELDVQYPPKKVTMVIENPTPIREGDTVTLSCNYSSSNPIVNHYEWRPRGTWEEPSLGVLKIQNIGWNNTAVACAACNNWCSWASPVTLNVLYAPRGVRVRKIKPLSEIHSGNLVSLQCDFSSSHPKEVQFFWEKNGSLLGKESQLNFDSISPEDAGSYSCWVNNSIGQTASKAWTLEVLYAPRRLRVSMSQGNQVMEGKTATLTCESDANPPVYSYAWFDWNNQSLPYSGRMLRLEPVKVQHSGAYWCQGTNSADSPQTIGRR

In assay [2] the target is T2, human Siglec-2/CD22 protein (Homo sapiens, UniProt P20273).
T2 construct: purchased Acro Biosystems SI2-H82E3
T2 sequence (P20273 20-847): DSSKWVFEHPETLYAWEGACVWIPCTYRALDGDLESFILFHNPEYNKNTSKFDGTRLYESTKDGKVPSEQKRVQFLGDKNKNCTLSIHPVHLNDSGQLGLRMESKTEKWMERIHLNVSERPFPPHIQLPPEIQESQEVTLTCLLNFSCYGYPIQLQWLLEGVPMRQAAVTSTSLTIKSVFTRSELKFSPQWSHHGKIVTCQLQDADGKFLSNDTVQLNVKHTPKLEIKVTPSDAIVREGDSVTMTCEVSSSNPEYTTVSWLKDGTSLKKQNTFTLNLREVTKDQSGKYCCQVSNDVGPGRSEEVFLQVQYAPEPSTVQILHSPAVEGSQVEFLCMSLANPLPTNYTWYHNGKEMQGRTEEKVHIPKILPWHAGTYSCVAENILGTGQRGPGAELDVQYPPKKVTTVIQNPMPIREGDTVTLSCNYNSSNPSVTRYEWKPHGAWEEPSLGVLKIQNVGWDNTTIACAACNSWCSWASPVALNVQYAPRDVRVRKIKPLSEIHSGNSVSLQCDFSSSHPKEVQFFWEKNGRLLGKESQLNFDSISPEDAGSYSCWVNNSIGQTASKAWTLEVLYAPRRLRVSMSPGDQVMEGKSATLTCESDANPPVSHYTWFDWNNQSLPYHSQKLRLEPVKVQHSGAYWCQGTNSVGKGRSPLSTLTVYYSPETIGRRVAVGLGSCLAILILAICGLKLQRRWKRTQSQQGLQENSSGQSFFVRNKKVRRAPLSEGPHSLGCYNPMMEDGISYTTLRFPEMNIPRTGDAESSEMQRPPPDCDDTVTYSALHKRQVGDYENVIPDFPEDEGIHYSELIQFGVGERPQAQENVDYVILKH
Briefly: SPR binding affinity to human CD22. The note with it: steady-state analysis. In a few lines:
as §1

As to `CC(=O)NCCOCCOCCOCCOCCC(=O)NCCCCCCO[C@]1(C(=O)O)C[C@H](O)[C@@H](NC(=O)CO)[C@H]([C@H](O)[C@H](O)CNC(=O)Cc2ccc(C(F)F)cc2)O1` [Cpd. 256, (2R,4S,5R,6R)-6-((1R,2R)-3-(2-(4-(difluoromethyl)phenyl)acetamido)-1,2-dihydroxypropyl)-2-((2,18-dioxo-6,9,12,15-tetraoxa-3,19-diazapentacosan-25-yl)oxy)-4-hydroxy-5-(2-hydroxyacetamido) tetrahydro-2H-pyran-2-carboxylic acid], the Kd was 1000 to 10000 nM in assay [1], under 1000 nM on cynomolgus Siglec-2/CD22 and under 1000 nM in assay [2].
For the compound `CC(=O)NCCOCCOCCOCCOCCNC(=O)CCCCCCO[C@]1(C(=O)O)C[C@H](O)[C@@H](NC(=O)CO)[C@H]([C@H](O)[C@H](O)CNC(=O)Cc2ccc(C(F)F)cc2)O1` [Cpd. 257, (2R,4S,5R,6R)-6-((1R,2R)-3-(2-(4-(difluoromethyl)phenyl)acetamido)-1,2-dihydroxypropyl)-2-((2,19-dioxo-6,9,12,15-tetraoxa-3,18-diazapentacosan-25-yl)oxy)-4-hydroxy-5-(2-hydroxyacetamido)tetrahydro-2H-pyran-2-carboxylic acid], the Kd in assay [1] was 1000 to 10000 nM; on cynomolgus Siglec-2/CD22 it was under 1000 nM; in assay [2] it was under 1000 nM.
Regarding `CC(=O)NCCOCCOCCOCCOCCNc1c(NCCCCCCO[C@]2(C(=O)O)C[C@H](O)[C@@H](NC(=O)CO)[C@H]([C@H](O)[C@H](O)CNC(=O)Cc3ccc(C(F)F)cc3)O2)c(=O)c1=O` [Cpd. 258, (2R,4S,5R,6R)-6-((1R,2R)-3-(2-(4-(difluoromethyl)phenyl)acetamido)-1,2-dihydroxypropyl)-2-((6-((3,4-dioxo-2-((2-oxo-6,9,12,15-tetraoxa-3-azaheptadecan-17-yl)amino)cyclobut-1-en-1-yl)amino)hexyl)oxy)-4-hydroxy-5-(2-hydroxyacetamido)tetrahydro-2H-pyran-2-carboxylic acid], the Kd (in assay [1]; at cynomolgus Siglec-2/CD22; in assay [2]) was under 1000 nM in each case.
Turning to `CC(=O)NCCOCCOCCOCCOCc1cn(CCOCCOCCO[C@]2(C(=O)O)C[C@H](O)[C@@H](NC(=O)CO)[C@H]([C@H](O)[C@H](O)CNC(=O)Cc3ccc(Cl)cc3)O2)nn1` [Cpd. 260, (2R,4S,5R,6R)-6-((1R,2R)-3-(2-(4-chlorophenyl)acetamido)-1,2-dihydroxypropyl)-4-hydroxy-5-(2-hydroxyacetamido)-2-(2-(2-(2-(4-(15-oxo-2,5,8,11-tetraoxa-14-azahexadecyl)-1H-1,2,3-triazol-1-yl)ethoxy)ethoxy)ethoxy)tetrahydro-2H-pyran-2-carboxylic acid], the Kd (in assay [1]; at cynomolgus Siglec-2/CD22; in assay [2]) was 1000 to 10000 nM in each case.
`CC(=O)NCCOCCOCCOCCOCCNc1c(NCCCCCCO[C@]2(C(=O)O)C[C@H](O)[C@@H](NC(=O)CO)[C@H]([C@H](O)[C@H](O)CNC(=O)Cc3ccc(-c4nnn[nH]4)cc3)O2)c(=O)c1=O` [Cpd. 265, (2R,4S,5R,6R)-6-((1R,2R)-3-(2-(4-(1H-tetrazol-5-yl)phenyl)acetamido)-1,2-dihydroxypropyl)-2-((6-((3,4-dioxo-2-((2-oxo-6,9,12,15-tetraoxa-3-azaheptadecan-17-yl)amino)cyclobut-1-en-1-yl)amino)hexyl)oxy)-4-hydroxy-5-(2-hydroxyacetamido)tetrahydro-2H-pyran-2-carboxylic acid]: the Kd (in assay [1]; on cynomolgus Siglec-2/CD22; in assay [2]) was under 1000 nM throughout.
As for `CC(=O)NCCOCCOCCOCCOCCNC(=O)CCCCCCO[C@]1(C(=O)O)C[C@H](O)[C@@H](NC(=O)CO)[C@H]([C@H](O)[C@H](O)CNC(=O)Cc2ccc(-c3nnn[nH]3)cc2)O1` [Cpd. 266, (2R,4S,5R,6R)-6-((1R,2R)-3-(2-(4-(1H-tetrazol-5-yl)phenyl)acetamido)-1,2-dihydroxypropyl)-2-((2,19-dioxo-6,9,12,15-tetraoxa-3,18-diazapentacosan-25-yl)oxy)-4-hydroxy-5-(2-hydroxyacetamido) tetrahydro-2H-pyran-2-carboxylic acid], the Kd in assay [1] is 1000 to 10000 nM; on cynomolgus Siglec-2/CD22, under 1000 nM; in assay [2], under 1000 nM.
In the case of `C#CCCCCCCO[C@]1(C(=O)O)C[C@H](O)[C@@H](NC(=O)CO)[C@H]([C@H](O)[C@H](O)CNC(=O)c2ccc(Cl)cc2)O1` [Cpd. 267, (2R,4S,5R,6R)-6-((1R,2R)-3-(4-chlorobenzamido)-1,2-dihydroxypropyl)-4-hydroxy-5-(2-hydroxyacetamido)-2-(oct-7-yn-1-yloxy) tetrahydro-2H-pyran-2-carboxylic acid], the Kd is 1000 to 10000 nM in assay [1], under 1000 nM on cynomolgus Siglec-2/CD22 and under 1000 nM in assay [2].

(Values after patent US20250064941A1, “SIGLEC LIGANDS, CONJUGATES, AND METHODS OF USE THEREOF” (Osprey Biopharmaceuticals, Inc., priority 2023, published 2025).)
